According to paper PMC6947424, “New Targeted Gold Nanorods for the Treatment of Glioblastoma by Photodynamic Therapy” (Journal of Clinical Medicine, 2019):
Residues, ends and D or L forms follow the SMILES beside them. *: point of attachment. Pyropheophorbide(a) = C=Cc1c(C)c2cc3nc(c4c5[nH]c(cc6nc(cc1[nH]2)C(C)=C6CC)c(C)c5C(=O)C4)[C@@H](CCC(=O)*)[C@@H]3C; Hexanoyl(6-maleimido) = O=C1C=CC(=O)N1CCCCCC(=O)*

Legend:
[1] = Fluorescence emission (quantum yield and lifetime); format: physicochemical; details: ethanol; for τf (fluorescence lifetime): TCSPC, single exponential fit; for Φf (fluorescence quantum yield): excitation 412 nm, TPP in toluene as standard, 25 °C
Experimental: The setup and the protocol to evaluate the photophysical characterizations including the absorption, fluorescence, and singlet oxygen emission spectra in addition to the fluorescence and singlet oxygen lifetimes have been previously described by our team. The absorption spectra were recorded on a UV-3600 UV–vis double beam spectrophotometer (Shimadzu, Marne La Vallée, France) in the wavelength range of 200-800 nm. The measurements were performed on the molecules dispersed in ethanol in quartz cuvettes with an optical path of 10 mm. The fluorescence spectra were recorded on a Horiba Jobin Yvon Fluorolog-3 (FL3-222) spectrofluorimeter equipped with a 450W xenon lamp, a thermostated cell compartment (25 °C), a R928 (Hamamatsu, Massy, France) UV–vis photomultiplier and a liquid nitrogen cooled InGaAs infrared detector (DSS-16A020L Electro-Optical System Inc., Phoenixville, PA, USA). The excitation spectrometer used is a SPEX double grating monochromator (1200 grooves per mm blazed at 330 nm). The fluorescence was measured using the UV–vis detector through a SPEX double grating monochromator (600 grooves per mm blazed at 500 nm). The singlet oxygen production was measured using the IR detector through a SPEX double grating monochromator (600 grooves per mm blazed at 1 μm).
Fluorescence quantum yields (Φf) were determined using a tetraphenyl porphyrin (TPP) solution as the fluorescence standard (Φf = 0.11 in toluene, taking into account solvent refractive index and absorption efficiencies. For the direct determination of ^1O2 quantum yield (ΦΔ), excitation was performed with a Xe-arc, the light was separated in a SPEX 1680, 0.22 µm double monochromator. Detection at 1270 nm was carried out through a PTI S/N 1565 monochromator and the emission was monitored by a liquid nitrogen cooled Ge-detector (EO-817L, North Coast Scientific Co, OH, USA). Rose Bengal (RB) was chosen as a reference solution because of its high ^1O2 quantum yield in EtOH (ΦΔ = 0.68). The absorbance value at the excitation wavelengths (412 nm) of both the reference and the sample solutions were set to approximately 0.2 by dilution. The samples were all prepared in ethanol.
The quantum yield of fluorescence is determined by the equation (1):(1) Φf=Φf0×If/If0×[…]×(n/n0)^2 where Φf and Φf0, If and If0, DO and DO0, n and n0 are the quantum yields, intensities, optical densities and refraction indices of the sample and reference, respectively.
Fluorescence lifetimes were measured by Time-Correlated Single Photon Counting (TCSPC) using for excitation a pulsed laser diode LDH-P-C-405 coupled with a PDL 800-D driver (both from PicoQuant GmbH, Berlin, Germany) emitting at 408 nm (FWHM < 70 ps, 1 MHz) and an SPCM-AQR-15 avalanche photodiode (EG & G, Vaudreuil, Canada) coupled with a 650 nm (±10 nm) interference long-wave pass filter as the detection system. The acquisition system was a PicoHarp 300 module with a PHR-800 four-channel router (both from PicoQuant GmbH, Berlin, Germany). Fluorescence decays were recorded using the single photon counting method (four optical faced quartz cells for pure products in ethanol). Data were collected, and up to 1000 counts were accumulated in the maximum channel and analyzed using Fluofit TCSPC software (PicoQuant GmbH, Berlin, Germany) based on iterative reconvolution using a Levensberg-Marquandt algorithm. Singlet oxygen lifetime measurements have been performed on a TEMPRO-01 spectrophotometer (Horiba Jobin Yvon, Palaiseau, France). The apparatus was composed of a pulsed diode excitation source SpectraLED-415 emitting at 415 nm, a cuvette compartment, a Seya–Namioka type emission monochromator (600–2000 nm), and an H10330-45 near-infrared photomultiplier tube with a thermoelectric cooler (Hamamatsu, Massy, France) as the detection system. The system was monitored by a single photon counting controller FluoroHub-B and the software DataStation and DAS6 (Horiba Jobin Yvon, Palaiseau, France). […]

U87 glioblastoma cells [2] = assay: MTT cytotoxicity in the dark, U87 cells; format: cell-based; details: 24 h in the dark, n = 3
Experimental: (§1) For in vitro experiments, U87 glioblastoma cells (ATCC® HTB-14™) were cultivated in Dulbecco’s modified eagle’s medium (DMEM) supplemented with sodium pyruvate 1.5 mM, MEM AA, MEM NE AA, MEM vitamins, L-Ser 14 μg·mL^−1, L-asp 25 μg·mL^−1, L-Glu 2.5 mM, 100 U·mL^−1 penicillin, 100 μg·mL^−1 streptomycin, and 20% FCS. They were cultured under standard cell culture conditions while incubated in 5% CO2/80% humidified air at 37 °C.
Cell survival of U87 after incubation with the hybrid AuNRs, the PS-peptide conjugate or the free PS in the dark (cytotoxicity) or after light exposure (phototoxicity) was investigated using an MTT assay as previously described. […] However, the phototoxicity induced by those molecules was assessed by exposing the cells to light at a fluence of 10 J·cm^−2 (fluence rate 4.54 mW·cm^−2, duration: 36 min 42 s) using a 652 nm diode laser system (Ceralas, Biolytec, Jena, Germany). […] The cell survival was measured by MTT assay where the cells were incubated for 3 h at 37 °C with 0.4 mg·mL^−1. […] The absorption of formazan was measured at 540 nm with a background subtraction at 630 nm using a Multiskan Ascent plate reader (Thermo Scientific, Vantaa, Finland). […]
All in vitro experiments were realized in triplicate and expressed as a percentage of variation from control cells. […]

U87 glioblastoma cells [3] = assay: MTT phototoxicity after light exposure, U87 cells; format: cell-based; details: 24 h; for decrease of cell viability: then 652 nm, 10 J/cm2 (4.54 mW·cm−2), MTT after further 24 h, triplicate; for PDT efficacy / photodynamic activity (in words): 10, 20 and 30 µM PS, 652 nm, 10 J/cm2, MTT
Experimental: as §1
Cell survival of U87 after incubation with the hybrid AuNRs, the PS-peptide conjugate or the free PS in the dark (cytotoxicity) or after light exposure (phototoxicity) was investigated using an MTT assay as previously described. Briefly, U87 cells were plated into 48-well plates at an initial cell density of 2 × 10^4 cells/cm^2 in culture medium, incubated at 37 °C during 48 h. Old culture media were discarded and the wells were filled with 250 µL of culture medium containing different concentrations of the tested molecules (AuNRs@PEG-MI-K(Pyro)DKPPR-OH, MI-K(Pyro)DKPPR-OH and Pyro) at a final PS concentration of 10, 20, and 30 μM. After 24 h, the wells were washed three times with HBSS and filled with culture medium. To evaluate the cytotoxicity of the tested molecules towards the U87 cells, one plate was kept incubated in the dark. However, the phototoxicity induced by those molecules was assessed by exposing the cells to light at a fluence of 10 J·cm^−2 (fluence rate 4.54 mW·cm^−2, duration: 36 min 42 s) using a 652 nm diode laser system (Ceralas, Biolytec, Jena, Germany). The cells were further incubated for 24 h. The cell survival was measured by MTT assay where the cells were incubated for 3 h at 37 °C with 0.4 mg·mL^−1. After that, the excess of MTT was discarded and the formazan crystals that developed in the living cells were dissolved by DMSO. The absorption of formazan was measured at 540 nm with a background subtraction at 630 nm using a Multiskan Ascent plate reader (Thermo Scientific, Vantaa, Finland). Experiments were carried out in triplicates.
All in vitro experiments were realized in triplicate and expressed as a percentage of variation from control cells. The results were given as mean ± standard deviation (SD). Differences among groups were evaluated using variance analysis (Anova) followed by Bonferroni test (GraphPad Prism 6.0 software, San Diego, CA, USA). A value of p < 0.05 was considered as statistically significant. * Versus control cells.

Compound | τf (fluorescence lifetime) [1] [ns] | Φf (fluorescence quantum yield) [1] | dark cytotoxicity (U87 glioblastoma cells [2]; even at PS concentration of 30 µM) | decrease of cell viability (U87 glioblastoma cells [3]; 10 µM PS) [%] | decrease of cell viability (U87 glioblastoma cells [3]; 20 µM PS) [%] | decrease of cell viability (U87 glioblastoma cells [3]; 30 µM PS) [%] | PDT efficacy / photodynamic activity (in words) (U87 glioblastoma cells [3]) | dark cytotoxicity (metabolic activity of U87 cells) (U87 glioblastoma cells [2]; 10 µM PS)
C=Cc1c(C)c2cc3nc(c4c5[nH]c(cc6nc(cc1[nH]2)C(C)=C6CC)c(C)c5C(=O)C4)[C@@H](CCC(=O)NCCCC[C@H](NC(=O)CCCCCN1C(=O)C=CC1=O)C(=O)N[C@@H](CC(=O)O)C(=O)N[C@@H](CCCCN)C(=O)N1CCC[C@H]1C(=O)N1CCC[C@H]1C(=O)N[C@@H](CCCNC(=N)N)C(=O)O)[C@@H]3C [MI-K(Pyro)DKPPR-OH] ({Hexanoyl(6-maleimido)}-K(Pyropheophorbide(a))DKPPR-OH) | 6.5 | 0.29 | no cytotoxic effect | 25 | 46 | 58 | lower photodynamic activity | –
C=Cc1c(C)c2cc3nc(c4c5[nH]c(cc6nc(cc1[nH]2)C(C)=C6CC)c(C)c5C(=O)C4)[C@@H](CCC(=O)O)[C@@H]3C [Pyro, pyropheophorbide-a, reference compound] | 6.8 | 0.38 | – | – | – | – | low PDT efficacy | decrease the metabolic activity of U87 cells
